Reference: patent EP2142646B1, “METHOD OF INCREASING OF THE PHOTOSYNTHETIC CARBON DIOXIDE ASSIMILATION YIELD” (priority 2007, dated 2008)
Values joined by “and” are separate entries in the source; they are usually repeats but may differ in a detail not shown here. Equal entries are not always repeated.

Legend:
[1] = target: T1, RuBisCO (Spinacia oleracea, UniProt P00870+P00875); experiment: RuBisCO carboxylase assay (formation of acid-stable 14C product from NaH14CO3); type: biochemical, spinach
T1 construct: from tissue; host or cells: spinach
T1 sequence (P00870 whole entry, other chains not shown): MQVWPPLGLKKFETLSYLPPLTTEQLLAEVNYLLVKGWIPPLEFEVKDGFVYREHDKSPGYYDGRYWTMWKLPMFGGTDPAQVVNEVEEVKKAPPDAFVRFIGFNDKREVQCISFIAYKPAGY
Source text: Relative amount of product detected represents the ratio of the amount of [1-14C]-3-phosphoglycerate produced by the reaction in the presence of 20E to the amount of [1-14C]-3-phosphoglycerate produced by the reaction in no presence of 20E.
The influence of ecdysteroids on RuBisCO assay was based on the protocol described by Pierce et al. (Pierce JW, McCurry SD, Mulligan RM, Tolbert NE. Activation and assay of ribulose-1,5-bisphosphate carboxylase/oxygenase. Methods Enzymol. 1982; 89: 47-55.), where the RuBisCO carboxylase activity is assayed by the rate of formation of acid-stable ^14C product, […], formed from NaH^14CO3. First, the enzyme from spinach was activated at 2 mg.mL^-1 in the activating buffer - 100 mM Bicine pH 8.2, non-labelled 10 mM NaHCO3, 20 mM MgCl2, 0.2 mM EDTA and 1 mM dithiodireitol - for ten minutes at 30 °C. The assay itself was carried out in 20 ml scintillation vials in a solution prepared by mixing 250 µL of 200 mM bicine buffer pH 8.2, 0.4 mM EDTA and 1 mM dithiothreitol, 5 µL of 2 M MgCl2, 150 µL of 20E solution or water (in the case of the control), 20 µL of 250 mM NaH^14CO3 solution and 20 µL of 12.5 mM ribulose-1,5-bisphosphate. 250 mM NaH^14CO3 was prepared by mixing NaH^14CO3 solution (specific activity 2 mCi/ml) with 0.3 M NaHCO3 in the ratio of 1:4. The reaction was initiated by the addition of 100 µL of the activated enzyme and the vial was swirled so that the solution components could mix. The reaction was stopped by the addition of 200 µL of 2 M HCl. To remove excess ^14CO2 and acid, the vials were slowly heated at 95 °C in a hood. After the liquid evaporated and the vials were cooled at laboratory temperature, 5 mL of scintillation solution Rotiszint® eco plus was added. The concentration of 20E was chosen so that its final molar concentration to the molar concentration of the enzyme in the vial was 1:1; the stock solution containing 1 mg of 20E per ml was diluted to the desired concentration just before the experiment.
The same experiment as in Example 1 was carried out but different amounts of 20-hydroxyecdysone were used.
The same experiment as in Example 1 was carried out but different brassinosteroids were used.
The same experiment as in Example 1 was carried out but different ecdysteroids were used.
The same experiment as in Example 1 was carried out but mixed ecdysteroid fractions were used.

[2] = tested on: photosynthesis; experiment: Overall activity of photosynthesis in vivo: oxygen production by leaf target (Clark oxygen electrode); details: for Net photosynthetic rate. PN, Average: average of 6 plants; for Net photosynthetic rate. PN: individual plants (Plant nr. 1-6), listed as 20E
Procedure: Activity of photosynthesis was measured as the production of oxygen by circular target (average 35 mm) cut from the third leaf (counted from the top of the plant) that was placed in the sampling chamber. Assay: oxygen electrode (Clark electrode), sampling chamber LD2 (Hansatech, King's Lynn, Great Britain). Target was incubated in the dark for 5 minutes followed by 9 minutes of illumination; production of oxygen evaluated in the fifth-eighth minute after illumination (in the linear part of the light curve). Illumination was 240 micromol.m^-2.s^-1. Plants were 96 days old when analyzed (96 days after sowing). […]

[3] = target: small subunits of RuBisCO (Spinacia oleracea, UniProt P00870); experiment: Bioaffinity chromatography of steroid-binding proteins
Chain of small subunits of RuBisCO (P00870 whole entry): as the sequence (P00870 whole entry, other chains not shown) above
Source text: As an example, ecdysteroids can be stated. […] Their function in plants has been unknown yet. We discovered that these compounds influence the carboxylase activity of the enzyme. The active enzyme consists of 8 large subunits and 8 small subunits considered to have regulatory role. We identified the small subunits as proteins able to bind 20-hydroxyecdysone (20HE) in bioaffinity chromatography.

[4] = molar ratio of steroid to enzyme 10:1, relative to reaction without steroid

Structure (SMILES): CC(C)(O)CC[C@@H](O)[C@](C)(O)[C@H]1CC[C@@]2(O)C3=CC(=O)[C@@H]4C[C@@H](O)[C@@H](O)C[C@]4(C)[C@H]3CC[C@]12C [20-hydroxyecdysone]
- Relative amount of product detected ([1]; molar ratio of steroid to enzyme 1:1, [1-14C]-3-phosphoglycerate relative to reaction without steroid): 1.05
- Relative amount of product detected [1, 4]: 1.13
- Relative amount of product detected ([1]; molar ratio of steroid to enzyme 20:1, relative to reaction without steroid): 1.12
- Net photosynthetic rate. PN, Average ([2]; 1 hour): 21.09 µmol O2.m^-2.s^-1
- Net photosynthetic rate. PN ([2]; 1 hour, plants 96 days old, illumination 240 micromol.m^-2.s^-1): 17.02 µmol O2.m^-2.s^-1 and 21.56 µmol O2.m^-2.s^-1 and 22.70 µmol O2.m^-2.s^-1 and 18.40 µmol O2.m^-2.s^-1 and 23.42 µmol O2.m^-2.s^-1 (2×)
- Net photosynthetic rate. PN, Average ([2]; 2 hours): 22.77 µmol O2.m^-2.s^-1
- Net photosynthetic rate. PN ([2]; 2 hours): 18.73 µmol O2.m^-2.s^-1 and 21.56 µmol O2.m^-2.s^-1 and 23.83 µmol O2.m^-2.s^-1 and 23.42 µmol O2.m^-2.s^-1 and 25.10 µmol O2.m^-2.s^-1 and 23.98 µmol O2.m^-2.s^-1
- Net photosynthetic rate. PN, Average ([2]; 4 hours): 22.34 µmol O2.m^-2.s^-1
- Net photosynthetic rate. PN ([2]; 4 hours): 21.56 µmol O2.m^-2.s^-1 and 22.70 µmol O2.m^-2.s^-1 and 22.31 µmol O2.m^-2.s^-1 (2×) and 21.75 µmol O2.m^-2.s^-1 and 23.42 µmol O2.m^-2.s^-1
- Net photosynthetic rate. PN, Average ([2]; 6 hours): 22.72 µmol O2.m^-2.s^-1
- Net photosynthetic rate. PN ([2]; 6 hours): 23.83 µmol O2.m^-2.s^-1 and 22.70 µmol O2.m^-2.s^-1 and 22.31 µmol O2.m^-2.s^-1 (2×) and 21.75 µmol O2.m^-2.s^-1 and 23.42 µmol O2.m^-2.s^-1
- binding to small subunits of RuBisCO [3]: able to bind

Structure (SMILES): CC(C)[C@@H](C)[C@@H](O)[C@H](O)[C@@H](C)[C@H]1CC[C@H]2[C@@H]3COC(=O)[C@H]4C[C@H](O)[C@H](O)C[C@]4(C)[C@H]3CC[C@]12C [24-epibrassinolide]
- Relative amount of product detected [1, 4]: 1.10

Structure (SMILES): CC(C)[C@@H](C)[C@@H](O)[C@H](O)[C@@H](C)[C@H]1CC[C@H]2[C@@H]3CC(=O)[C@H]4C[C@H](O)[C@H](O)C[C@]4(C)[C@H]3CC[C@]12C [24-epicastasterone]
- Relative amount of product detected [1, 4]: 1.20

Structure (SMILES): CC(C)CC[C@@H](O)[C@](C)(O)[C@H]1CC[C@@]2(O)C3=CC(=O)[C@@H]4C[C@@H](O)[C@@H](O)C[C@]4(C)[C@H]3[C@H](O)C[C@]12C [Ajugasterone C]
- Relative amount of product detected [1, 4]: 1.13

Structure (SMILES): CC(C)(O)CC[C@@H](O)[C@](C)(O)[C@H]1CC[C@@]2(O)C3=CC(=O)[C@]4(O)C[C@@H](O)[C@@H](O)C[C@]4(C)[C@H]3CC[C@]12C [Polypodine B]
- Relative amount of product detected [1, 4]: 1.11
